How the values were obtained:
[1] = system: α-SMA expression induced by TGFβ1 in dermal fibroblasts; test: Fibrosis inhibition evaluation 1: western blotting of α-SMA in dermal fibroblasts; assay type: cell-based, mice; details: compound 011 0.1, 1, 10 μM (especially 10 μM); Pyr 2 10 μM; TGFβ1 10 ng/ml, 48 hours
Method: The expression of α-smooth muscle actin (α-SMA) in fibroblasts was evaluated by western blotting. Dermal fibroblasts were isolated from 1 to 3-day-old mice, and 2.5×10^5 cells were seeded in a 12-well plate. After 24 hours, the medium was replaced with a medium free of fetal bovine serum, and the cells were cultured for another 24 hours. Thereafter, 10 ng/ml of transforming growth factor β1 (TGFβ1) was added, and the cells were cultured for 48 hours. At the same time as TGFβ1 was added, a test compound (compound 011) of a predetermined concentration (0.1 μM, 1 μM, 10 μM) and 10 μM of Pyr 2 or DMSO (solvent control) were also added. […] The cultured cells were dissolved in a lysis buffer (140 mM NaCl, 20 mM Tris-HCl pH 7.8, 1% Triton-X100, 0.05% sodium deoxycholate, 0.1% SDS, 2 mM EDTA, proteinase inhibitor cocktail), and separated by SDS-PAGE, followed by detecting α-SMA using anti-α-SMA antibody (Sigma) as the primary antibody and anti-mouse IgG antibody (cell signaling) fused with horse radish peroxidase as the secondary antibody.

[2] = system: renal interstitial fibrosis caused by unilateral ureteral obstruction; details: mice; cited from earlier work
dermal fibroblasts = test: Fibrosis inhibition evaluation 1: cell morphology observation of dermal fibroblasts; assay type: cell-based, mice; details: dermal fibroblasts cultured 48 hours with TGFβ1
[3] = system: α-SMA expression induced by TGFβ2 in cardiac fibroblasts; test: Fibrosis inhibition evaluation 2: immunofluorescent staining of α-SMA in cardiac fibroblasts; assay type: cell-based, rats; details: 10 μM, TGFβ2 2 ng/ml, 48 hours, FIG. 8
Method: (§1) In the same manner as in Test Example 5, dermal fibroblasts were isolated from mice, and sterilized cover glass (diameter: 12 mm) was placed in a 12-well plate. On the cover glass, 2.5×10^5 cells were seeded and grown. After 24 hours, the medium was replaced with a medium free of fetal bovine serum, and the cells were cultured for another 24 hours. Separately, cardiac fibroblasts were isolated from 1 to 2-day-old rats and treated in the same manner as for the dermal fibroblasts. Thereafter, 10 ng/ml TGFβ1 was added to the dermal fibroblasts, and 2 ng/ml TGFβ2 was added to the cardiac fibroblasts, followed by culturing the cells for 48 hours. At the same time as TGFβ was added, 10 μM of a test compound (compound 011), 10 μM of Pyr 2 (conventional inhibitor), or DMSO (solvent control) was also added. Separately, cultured cells to which TGFβ-free phosphate buffered saline (PBS) was added were also prepared. […] After blocking with 1% bovine serum albumin, α-SMA was detected using anti-α-SMA antibody (Sigma) as the primary antibody and anti-mouse IgG antibody (Molecular Probes) fused with Alexa 488 as the secondary antibody, and an image was acquired using a fluorescence microscope (Keyence) with a 20× objective lens. The average fluorescence brightness (fluorescence intensity/pixel) per cell area was calculated and analyzed using Image J software.

[4] = system: α-SMA expression induced by TGFβ1 in dermal fibroblasts; test: Fibrosis inhibition evaluation 2: immunofluorescent staining of α-SMA in dermal fibroblasts; assay type: cell-based, mice; details: 10 μM, TGFβ1 10 ng/ml, 48 hours, FIG. 7
Method: as §1

Cc1nnsc1C(=O)Nc1ccc(-n2nc(C(F)(F)F)cc2C(F)(F)F)cc1 [Pyr 2, reference compound]
expression of α-SMA induced by TGFβ1 (western blotting) [1]: lighter coloration of the α-SMA antibody compared with the control
suppression of renal interstitial fibrosis caused by unilateral ureteral obstruction [2]: suppresses renal interstitial fibrosis caused by unilateral ureteral obstruction
cell morphology / cell damage by microscopic observation (dermal fibroblasts): cell elongation
expression of α-SMA induced by TGFβ (immunofluorescent staining) [3]: almost completely suppressed the expression of α-SMA
expression of α-SMA induced by TGFβ (immunofluorescent staining) [4]: almost completely suppressed the expression of α-SMA

— US11976062B2, “Benzisoxazole compound” (OSAKA UNIVERSITY, priority 2018, dated 2024)
